Here are results for one compound from PMC8410034, “A variant of ASIC2 mediates sodium retention in nephrotic syndrome” (JCI Insight, 2021).

One assay deals with T1, ASIC2a/t-ASIC2b (Rattus norvegicus, UniProt A0A0G3F2N6+Q62962).
T1 construct: gene Asic2; X. laevis oocytes injected with 3 ng Asic2a + 6 ng Asic2b-type cRNA; t-ASIC2b lacks first 71 N-terminal residues; heterotrimer, stoichiometry unknown (mix with 0, 1 or 2 t-ASIC2b)
T1 sequence (A0A0G3F2N6 1-492): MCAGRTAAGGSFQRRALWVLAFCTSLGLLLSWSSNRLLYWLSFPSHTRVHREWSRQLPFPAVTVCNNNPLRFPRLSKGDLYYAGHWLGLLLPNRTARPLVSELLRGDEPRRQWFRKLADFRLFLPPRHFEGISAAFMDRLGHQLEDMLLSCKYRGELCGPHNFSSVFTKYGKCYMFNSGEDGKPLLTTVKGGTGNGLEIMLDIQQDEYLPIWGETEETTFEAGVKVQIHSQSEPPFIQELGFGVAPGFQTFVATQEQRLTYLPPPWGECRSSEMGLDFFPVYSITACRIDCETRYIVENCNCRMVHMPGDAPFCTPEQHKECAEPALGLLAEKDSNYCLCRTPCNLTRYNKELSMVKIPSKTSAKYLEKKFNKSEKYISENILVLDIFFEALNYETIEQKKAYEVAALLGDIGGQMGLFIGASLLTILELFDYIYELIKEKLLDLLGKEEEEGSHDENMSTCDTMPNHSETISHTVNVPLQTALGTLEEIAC
T1 sequence (Q62962 1-563 isoform Q62962-2): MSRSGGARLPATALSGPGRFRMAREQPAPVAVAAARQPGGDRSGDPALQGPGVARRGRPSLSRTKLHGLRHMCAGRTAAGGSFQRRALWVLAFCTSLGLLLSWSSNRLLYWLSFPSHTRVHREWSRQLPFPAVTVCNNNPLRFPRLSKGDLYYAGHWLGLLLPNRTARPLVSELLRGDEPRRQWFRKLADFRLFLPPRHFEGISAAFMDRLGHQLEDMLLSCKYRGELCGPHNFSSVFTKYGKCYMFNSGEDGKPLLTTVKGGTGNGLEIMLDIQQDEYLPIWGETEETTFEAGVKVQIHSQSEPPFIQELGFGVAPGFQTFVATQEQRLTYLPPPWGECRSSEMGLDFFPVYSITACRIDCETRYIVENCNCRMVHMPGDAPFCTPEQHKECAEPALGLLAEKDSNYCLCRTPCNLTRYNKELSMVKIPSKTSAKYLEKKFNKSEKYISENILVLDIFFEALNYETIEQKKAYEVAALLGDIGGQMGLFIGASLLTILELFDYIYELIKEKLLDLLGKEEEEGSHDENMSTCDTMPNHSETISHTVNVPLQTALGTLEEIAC
Briefly: two-electrode voltage clamp, X. laevis oocytes. The format is cell-based.

For the next assay, the target named is T2, ASIC2a (Rattus norvegicus, UniProt Q62962).
T2 construct: gene Asic2; full-length, expressed alone in X. laevis oocytes (3 ng cRNA, pGH19); homotrimer
T2 sequence (Q62962 1-512): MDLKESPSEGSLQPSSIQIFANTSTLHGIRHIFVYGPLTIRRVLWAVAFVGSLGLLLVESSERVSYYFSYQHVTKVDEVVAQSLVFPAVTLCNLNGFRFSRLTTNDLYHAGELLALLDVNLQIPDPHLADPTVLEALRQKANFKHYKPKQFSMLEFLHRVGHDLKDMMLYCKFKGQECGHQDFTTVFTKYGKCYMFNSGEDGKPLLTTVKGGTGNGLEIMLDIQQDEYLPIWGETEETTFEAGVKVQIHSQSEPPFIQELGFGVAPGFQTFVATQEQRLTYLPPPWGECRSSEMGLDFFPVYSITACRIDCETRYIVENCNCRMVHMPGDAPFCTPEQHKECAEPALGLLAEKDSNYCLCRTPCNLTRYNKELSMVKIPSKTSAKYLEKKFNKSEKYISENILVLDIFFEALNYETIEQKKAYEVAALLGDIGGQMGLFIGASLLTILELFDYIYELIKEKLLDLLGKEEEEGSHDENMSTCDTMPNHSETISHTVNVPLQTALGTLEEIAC
The assay can be described thus: two-electrode voltage clamp, X. laevis oocytes. The format is cell-based. Conditions: acid-induced (pH 4) plateau current, -70 mV. (In general: Two-electrode voltage clamp is typically applied to oocytes expressing channels or transporters.)

As a reminder, the IC50 is the midpoint of a concentration-inhibition curve. `N=C(N)NC(=O)c1nc(Cl)c(N)nc1N` [amiloride] yielded an IC50 on ASIC2a/t-ASIC2b of about 50 µM. Besides, the “% inhibition at 100 μM” value on ASIC2a was “did not alter significantly the apparent low sensitivity of ASIC2a to amiloride”.
